Laboratory results: patent US20080306056A1, “PYRAZOLE-DERIVATIVES AS FACTOR Xa INHIBITORS” (SANOFI-AVENTIS DEUTSCHLAND GMBH, priority 2002, published 2008)

Target: T1, human factor Xa (Homo sapiens, UniProt P00742)
T1 construct: 25 μl human factor Xa (Enzyme Research Laboratories, Inc; South Bend, Ind.); purchased Enzyme Research Laboratories, Inc; South Bend, Ind
Experiment: Factor Xa assay (chromogenic, purified enzyme)
Type: biochemical
Settings: inhibition constant for factor Xa; chromogenic substrate S-2765 140 μM, enzyme 0.5 nM, 25° C., pH 7.8; Ki=IC50/{1+(substrate concentration/Km)}; read-out: Ki(FXa)
Method in brief: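 Human factor Xa (0.5 nM) pre-incubated 10 min with compound in TBS-PEG/DMSO, then S-2765 (140 μM) added; initial hydrolysis rate read at 405 nm, 25°C. IC50 by linear regression of relative rate vs log concentration; Ki = IC50/(1+[S]/Km).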

T1 sequence (P00742 235-488 limits assumed): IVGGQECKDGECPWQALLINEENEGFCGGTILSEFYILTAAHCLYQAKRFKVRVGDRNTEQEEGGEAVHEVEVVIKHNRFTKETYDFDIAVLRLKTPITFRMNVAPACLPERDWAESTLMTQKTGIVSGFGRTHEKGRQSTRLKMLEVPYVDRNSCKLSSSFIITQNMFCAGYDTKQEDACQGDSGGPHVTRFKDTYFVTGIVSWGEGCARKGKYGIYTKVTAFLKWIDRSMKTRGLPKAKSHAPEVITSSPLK
T1 sequence (P00742 41-179 partner limits assumed): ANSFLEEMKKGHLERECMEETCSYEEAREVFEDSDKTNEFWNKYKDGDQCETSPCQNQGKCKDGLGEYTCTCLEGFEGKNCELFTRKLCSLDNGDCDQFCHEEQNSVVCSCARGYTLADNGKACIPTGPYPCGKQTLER

SMILES	Ki
CC(C)N1CCC(NC(=O)c2cc(C(=O)NC[Si](C)(C)C)nn2Cc2cc(-c3ccc(Cl)s3)on2)CC1 [Example 80, 1-[5-(5-Chloro-thiophen-2-yl)-isoxazol-3-ylmethyl]-1H-pyrazole-3,5-dicarboxylic acid 5-[(1-isopropyl-piperidin-4-yl)-amide] 3-trimethylsilanylmethyl-amide]	149 nM
CCOC(=O)C(NC(=O)c1cc(C(=O)NC2CCN(C(C)C)CC2)n(Cc2cc(-c3ccc(Cl)s3)on2)n1)C(C)C (stereo not drawn) [Example 97, 2-{[1-[5-(5-Chloro-thiophen-2-yl)-isoxazol-3-ylmethyl]-5-(1-isopropyl-piperidin-4-ylcarbamoyl)-1H-pyrazole-3-carbonyl]-amino}-3-methyl-butyric acid ethyl ester]	228 nM
CC(C)N1CCC(NC(=O)c2cc(C(=O)O)n(Cc3cc(-c4ccc(Cl)s4)on3)n2)CC1 [Example 85, 2-[5-(5-Chloro-thiophen-2-yl)-isoxazol-3-ylmethyl]-5-(1-isopropyl-piperidin-4-ylcarbamoyl)-2H-pyrazole-3-carboxylic acid]	185 nM
CC(C)N1CCC(NC(=O)c2cc(-c3cccs3)nn2Cc2csc(-c3ccc(Cl)s3)n2)CC1 [Example 14, 2-[2-(5-Chloro-thiophen-2-yl)-thiazol-4-ylmethyl]-5-thiophen-2-yl-2H-pyrazole-3-carboxylic acid (1-isopropyl-piperidin-4-yl)-amide]	46 nM
CC(C)N1CCC(NC(=O)c2cc(OCC(F)(F)F)nn2CC(=O)Nc2ccc(Cl)cn2)CC1 [Example 105, 2-[(5-Chloro-pyridin-2-ylcarbamoyl)-methyl]-5-(2,2,2-trifluoro-ethoxy)-2H-pyrazole-3-carboxylic acid (1-isopropyl-piperidin-4-yl)-amide]	21 nM
COCCOCCOc1cc(C(=O)NC2CCN(C(C)C)CC2)n(CC(=O)Nc2ccc(Cl)cn2)n1 [Example 104, 2-[(5-Chloro-pyridin-2-ylcarbamoyl)-methyl]-5-[2-(2-methoxy-ethoxy)-ethoxy]-2H-pyrazole-3-carboxylic acid (1-isopropyl-piperidin-4-yl)-amide]	25 nM
CCCc1c(C#N)c(C(=O)NC2CCN(C(C)C)CC2)nn1Cc1cc(-c2ccc(Cl)s2)on1 [Example 11, 1-[5-(5-Chloro-thiophen-2-yl)-isoxazol-3-ylmethyl]-4-cyano-5-propyl-1H-pyrazole-3-carboxylic acid (1-isopropyl-piperidin-4-yl)-amide]	83 nM
CONC(=O)c1cc(C(=O)NC2CCN(C(C)C)CC2)n(Cc2cc(-c3ccc(Cl)s3)on2)n1 [Example 59, 1-[5-(5-Chloro-thiophen-2-yl)-isoxazol-3-ylmethyl]-1H-pyrazole-3,5-dicarboxylic acid 5-[(1-isopropyl-piperidin-4-yl)-amide] 3-(methoxy-amide)]	94 nM
CCOC(=O)CNC(=O)c1cc(C(=O)NC2CCN(C(C)C)CC2)n(CC(=O)Nc2ccc(Cl)cn2)n1 [Example 93, {[1-[(5-Chloro-pyridin-2-ylcarbamoyl)-methyl]-5-(1-isopropyl-piperidin-4-ylcarbamoyl)-1H-pyrazole-3-carbonyl]-amino}-acetic acid ethyl ester]	36 nM
CC(C)N1CCC(NC(=O)c2cc(C(=O)NCCCN3CCCC3=O)nn2Cc2cc(-c3ccc(Cl)s3)on2)CC1 [Example 76, 1-[5-(5-Chloro-thiophen-2-yl)-isoxazol-3-ylmethyl]-1H-pyrazole-3,5-dicarboxylic acid 5-[(1-isopropyl-piperidin-4-yl)-amide] 3-{[3-(2-oxo-pyrrolidin-1-yl)-propyl]-amide}]	83 nM
CC(C)N1CCC(NC(=O)c2cc(C(=O)O)nn2Cc2cc(-c3ccc(Cl)s3)on2)CC1 [Example 21, 1-[5-(5-Chloro-thiophen-2-yl)-isoxazol-3-ylmethyl]-5-(1-isopropyl-piperidin-4-ylcarbamoyl)-1H-pyrazole-3-carboxylic acid]	214 nM
CC(C)N1CCC(NC(=O)c2c(C#N)c(-c3cccs3)nn2Cc2ccc(Cl)cc2)CC1 [Example 19, 2-(4-Chloro-benzyl)-4-cyano-5-thiophen-2-yl-2H-pyrazole-3-carboxylic acid (1-isopropyl-piperidin-4-yl)-amide]	274 nM
CC(C)N1CCC(NC(=O)c2cc(C(=O)NCCN3CCNC3=O)nn2Cc2cc(-c3ccc(Cl)s3)on2)CC1 [Example 73, 1-[5-(5-Chloro-thiophen-2-yl)-isoxazol-3-ylmethyl]-1H-pyrazole-3,5-dicarboxylic acid 5-[(1-isopropyl-piperidin-4-yl)-amide] 3-{[2-(2-oxo-imidazolidin-1-yl)-ethyl]-amide}]	83 nM
CCCc1nn(Cc2cc(-c3ccc(Cl)s3)on2)c(C(=O)NC2CCN(C(C)C)CC2)c1C#N [Example 10, 2-[5-(5-Chloro-thiophen-2-yl)-isoxazol-3-ylmethyl]-4-cyano-5-propyl-2H-pyrazole-3-carboxylic acid (1-isopropyl-piperidin-4-yl)-amide]	41 nM
CC(C)N1CCC(NC(=O)c2cc(-c3ccc(Cl)s3)n(Cc3cc(-c4ccc(Cl)s4)on3)n2)CC1 [Example 6, 5-(5-Chloro-thiophen-2-yl)-1-[5-(5-chloro-thiophen-2-yl)-isoxazol-3-ylmethyl]-1H-pyrazole-3-carboxylic acid (1-isopropyl-piperidin-4-yl)-amide]	491 nM
CC(C)OC(=O)CNC(=O)c1cc(C(=O)NC2CCN(C(C)C)CC2)n(Cc2cc(-c3ccc(Cl)s3)on2)n1 [Example 90, {[1-[5-(5-Chloro-thiophen-2-yl)-isoxazol-3-ylmethyl]-5-(1-isopropyl-piperidin-4-ylcarbamoyl)-1H-pyrazole-3-carbonyl]-amino}-acetic acid isopropyl ester]	240 nM
CC(C)N1CCC(NC(=O)c2cc(C(=O)NCCO)nn2Cc2cc(-c3ccc(Cl)s3)on2)CC1 [Example 27, 1-[5-(5-Chloro-thiophen-2-yl)-isoxazol-3-ylmethyl]-1H-pyrazole-3,5-dicarboxylic acid 3-[(2-hydroxy-ethyl)-amide] 5-[(1-isopropyl-piperidin-4-yl)-amide]]	88 nM
CC(C)N1CCC(NC(=O)c2nn(Cc3cc(-c4ccc(Cl)s4)on3)c(-c3cccs3)c2C#N)CC1 [Example 13, 1-[5-(5-Chloro-thiophen-2-yl)-isoxazol-3-ylmethyl]-4-cyano-5-thiophen-2-yl-1H-pyrazole-3-carboxylic acid (1-isopropyl-piperidin-4-yl)-amide]	39 nM
CC(C)N1CCC(NC(=O)c2cc(C(=O)N(CCO)CCO)nn2Cc2cc(-c3ccc(Cl)s3)on2)CC1 [Example 88, 1-[5-(5-Chloro-thiophen-2-yl)-isoxazol-3-ylmethyl]-1H-pyrazole-3,5-dicarboxylic acid 3-[bis-(2-hydroxy-ethyl)-amide] 5-[(1-isopropyl-piperidin-4-yl)-amide]]	106 nM
CC(C)C(NC(=O)c1cc(C(=O)NC2CCN(C(C)C)CC2)n(Cc2cc(-c3ccc(Cl)s3)on2)n1)C(=O)O (stereo not drawn) [Example 98, 2-{[1-[5-(5-Chloro-thiophen-2-yl)-isoxazol-3-ylmethyl]-5-(1-isopropyl-piperidin-4-ylcarbamoyl)-1H-pyrazole-3-carbonyl]-amino}-3-methyl-butyric acid]	140 nM
CC(C)N1CCC(NC(=O)c2c(C#N)cnn2CC(=O)Nc2ccc(Cl)cc2)CC1 [Example 57, 2-[(4-Chloro-phenylcarbamoyl)-methyl]-4-cyano-2H-pyrazole-3-carboxylic acid (1-isopropyl-piperidin-4-yl)-amide]	410 nM
CC(C)N1CCC(NC(=O)c2cc(C(=O)NCC(F)(F)F)nn2Cc2cc(-c3ccc(Cl)s3)on2)CC1 [Example 74, 1-[5-(5-Chloro-thiophen-2-yl)-isoxazol-3-ylmethyl]-1H-pyrazole-3,5-dicarboxylic acid 5-[(1-isopropyl-piperidin-4-yl)-amide] 3-[(2,2,2-trifluoro-ethyl)-amide]]	86 nM
CC(C)N1CCC(NC(=O)c2nn(Cc3cc(-c4ccc(Cl)s4)on3)cc2C#N)CC1 [Example 56, 1-[5-(5-Chloro-thiophen-2-yl)-isoxazol-3-ylmethyl]-4-cyano-1H-pyrazole-3-carboxylic acid (1-isopropyl-piperidin-4-yl)-amide]	144 nM
CC(C)N1CCC(NC(=O)c2cc(C(=O)N3CC(O)C3)nn2CC(=O)Nc2ccc(Cl)cn2)CC1 [Example 95, 2-[(5-Chloro-pyridin-2-ylcarbamoyl)-methyl]-5-(3-hydroxy-azetidine-1-carbonyl)-2H-pyrazole-3-carboxylic acid (1-isopropyl-piperidin-4-yl)-amide]	39 nM
CC(C)N1CCC(NC(=O)c2cc(C(=O)N3CCSCC3)nn2Cc2cc(-c3ccc(Cl)s3)on2)CC1 [Example 34, 2-[5-(5-Chloro-thiophen-2-yl)-isoxazol-3-ylmethyl]-5-(thiomorpholine-4-carbonyl)-2H-pyrazole-3-carboxylic acid (1-isopropyl-piperidin-4-yl)-amide]	108 nM
CC(C)N1CCC(NC(=O)c2cc(C(=O)N3CCCOCC3)nn2Cc2cc(-c3ccc(Cl)s3)on2)CC1 [Example 42, 2-[5-(5-Chloro-thiophen-2-yl)-isoxazol-3-ylmethyl]-5-([1,4]oxazepane-4-carbonyl)-2H-pyrazole-3-carboxylic acid (1-isopropyl-piperidin-4-yl)-amide]	84 nM
CC(C)N1CCC(NC(=O)c2cc(C(=O)NC3=NCCO3)nn2Cc2cc(-c3ccc(Cl)s3)on2)CC1 [Example 68, 1-[5-(5-Chloro-thiophen-2-yl)-isoxazol-3-ylmethyl]-1H-pyrazole-3,5-dicarboxylic acid 3-[(4,5-dihydro-oxazol-2-yl)-amide] 5-[(1-isopropyl-piperidin-4-yl)-amide]]	99 nM
